Source: US12061202B2, “Compositions and methods for bioluminescent detection using multifunctional probes” (Promega Corporation, priority 2019, dated 2024)

Assays:
Format in all cases: cell-based
K562 cells [1] = assay: Release of labeled proteins from dead cells, NanoBiT bioluminescence (HaloTag-SmBiT/HaloTag-LgBiT), K562; details: for Dead/Live at 5,000 cells/well: final labeling probe concentration 5 μM; for Dead, RLUs: dead (digitonin treated) cells; for Live, RLUs: live cells; for Dead/Live: ratio after background subtraction
Protocol: (§1) Next, the bifunctional labeling probe was thawed at room temperature and mixed. The probe was generally contained in DMSO. The bifunctional probe was added to the cells at a final concentration between about 0.5-10 μM. The cells were then mixed by gently pipetting and incubated for 30 minutes at 37° C. To inactivate unreactive free labeling probe, a 10× volume of pre-warmed (37° C.) cell culture medium containing 10% FBS was added, and the cells incubated for additional 5 minutes. The labeled cells were then spun down, and the labeling media removed. The cells were resuspended in fresh cell culture media at the concentration required for the experiment.
(§2) In some embodiments, one or more components of the NanoBiT® system can be used for measuring cell death of pre-labeled cell population in mixed cell cultures. Here, an exemplary protocol is described for using this assay in 96-well plates in […]: 50 μl of sample+50 μl of Detection Reagent+25 μl of Nano-Glo® Luciferase Assay substrate.
(§3) Labeled cells (1,250-10,000 cells/well) were plated with experimental treatment conditions (e.g., drug, effector cells, etc.) in 50 μl of appropriate medium. Wells without cells were included as negative controls to determine background luminescence in the media. Separate wells were included with pre-labeled cells for determining maximum release of labeled proteins. Detection Reagents were assembled: about 1 ml of Detection Reagent buffer (2×) was combined with about 1.25 μl of Detection Component 1 and 1.25 μl of Detection Component 2. If maximum release determination was needed, the required amount of prepared Detection Reagent (50 μl/per sample) was removed, and digitonin at 0.12 mg/ml concentration added (for example, add 6 μl to 1 ml of Detection Reagent).
(§4) About 50 μl of prepared Detection Reagent was added into all assay wells and negative (media) control wells. Detection Reagent with Digitonin was added into control wells for determining maximum release. The cells were placed into a tissue culture incubator, and the treatment continued up to 24 hours. Nano-Glo® Luciferase Assay Substrate was prepared by diluting (1:50) substrate into assay medium. The assay plate was then removed from the tissue culture incubator and equilibrated to room temperature for about 5 mins. About 25 μL of prepared substrate was added to the assay wells, mixed, and luminescence was read.
(§5) No labeling control was included for toxicity evaluation. After labeling, the cells were resuspended in appropriate medium, counted, and plated into wells of a 96-well plate at two-fold serial dilution starting from 20,000 cells/well. The Detection Reagents with or without digitonin were added as described above, and the plates were placed into a tissue culture incubator. After incubation, Nano-Glo® Luciferase Assay substrate was added to the samples, and luminescence was read. After reading luminescence, an equal volume of CellTiter-Glo was added to the samples to measure changes in viability. […] The linear range of the assay is underlined. Dead/Live is the ratio between luminescence signal of dead and live cells calculated after assay background subtraction (media control).

Raji cells [2] = assay: Release of labeled proteins from dead cells, NanoBiT bioluminescence, Raji; details: for Dead/Live at 5,000 cells/well: final labeling probe concentration 2 μM; for Dead, RLUs: dead (digitonin treated) cells; for Live, RLUs: live cells; for Dead/Live: ratio after background subtraction
Protocol: as §1, §2, §3, §4, §5

SKBR3 = assay: Release of labeled proteins from dead cells, NanoBiT bioluminescence, SKBR3; details: final labeling probe concentration 10 μM
Protocol: as §1
(§6) In some embodiments, one or more components of the NanoBiT® system can be used for measuring cell death of pre-labeled cell population in mixed cell cultures. […]
(§7) Labeled cells (1,250-10,000 cells/well) were plated with experimental treatment conditions (e.g., drug, effector cells, etc.) in 50 μl of appropriate medium. Wells without cells were included as negative controls to determine background luminescence in the media. […]
(§8) About 50 μl of prepared Detection Reagent was added into all assay wells and negative (media) control wells. […] About 25 μL of prepared substrate was added to the assay wells, mixed, and luminescence was read.

K562 cells [3] = assay: Cell viability after labeling, CellTiter-Glo, K562; details: labeled at 2 and 5 μM
Protocol: (§9) For assay optimization, labeling the cells at different probe concentrations and setting up cell titration curves can be advantageous. To evaluate effect of labeling on cell viability, different viability/toxicity assays can also be used. Here, an example of assay optimization is provided using Raji and K562 cells. […] However, labeling efficiency, toxicity, assay linearity, and assay window differed depending on the cell line and labeling conditions. […] Labeling K562 at 2 μM extended linear range of the assay up to 20,000 cells/well, however assay window decreased from 18-fold to 7-8-fold.
as §5

HCT116 = assay: Release of labeled proteins from dead cells, NanoBiT bioluminescence, HCT116; details: final labeling probe concentration 10 μM
Protocol: as §1, §6, §7, §8

Raji cells [4] = assay: Cell viability after labeling, CellTiter-Glo, Raji
Protocol: as §9, §5

A431 = assay: Release of labeled proteins from dead cells, NanoBiT bioluminescence, A431; details: final labeling probe concentration 10 μM
Protocol: as §1, §6, §7, §8

various cell types = assay: Labeling of various cell types with bifunctional probe, NanoBiT detection (FIG. 2B)
From the text: As shown in FIGS. 2A-2B, a variety of cells were labeled with the bifunctional probes of the present disclosure. FIG. 2A is a representative schematic diagram of a method used to label the various target cells identified in FIG. 2B. […] Robust luminescence was detected from the labeled proteins released after cell death, which were quantified using the NanoBiT® system, while little luminescence was detected in the media and live cells.
In accordance with these experiments, the various cell types tested were collected by centrifugation for 5 mins at 300 g followed by aspiration of the media and resuspension in PBS. The bifunctional probe was then added to the media and allowed to incubate for 30 mins at 37° C. Pre-warmed (37° C.) complete media containing 10% serum was then added to the cells and incubated for 5 mins at 37° C. The labeled cells were then collected by centrifugation for 5 mins at 300 g and excess media was removed, and the labeled cells were then resuspended in the desired media. NanoBiT® detection reagents were then added to the labeled cells and allowed to incubate for 30 mins at 37° C. prior to reading luminescence (RLUs).

SMILES: O=C(NCCOCCOCCCCCCCl)c1ccc(C(=O)ON2C(=O)CCC2=O)cc1 [Labeling Probe, 2,5-dioxopyrrolidin-1-yl 4-((2-(2-((6-chlorohexyl)oxy)ethoxy)ethyl)carbamoyl)benzoate]
- Dead/Live at 5,000 cells/well (K562 cells [1]; at 4 h): 18.3
- Dead/Live at 5,000 cells/well (K562 cells [1]; at 24 h): 19.0
- assay window (K562 cells [1]; labeling at 2 μM): 7-8 fold
- assay window (K562 cells [1]; labeling at 5 μM): 18 fold
- Dead, RLUs (K562 cells [1]; probe 2 μM, 1,250 cells/well): 69,663 RLUs
- Live, RLUs (K562 cells [1]; probe 2 μM, 1,250 cells/well): 37,113 RLUs
- Dead/Live (K562 cells [1]; probe 2 μM, 1,250 cells/well): 5.0
- Dead, RLUs (K562 cells [1]; probe 2 μM, 2,500 cells/well): 88,448 RLUs
- Live, RLUs (K562 cells [1]; probe 2 μM, 2,500 cells/well): 40,600 RLUs
- Dead/Live (K562 cells [1]; probe 2 μM, 2,500 cells/well): 5.2
- Dead, RLUs (K562 cells [1]; probe 2 μM, 5,000 cells/well): 114,346 RLUs
- Live, RLUs (K562 cells [1]; probe 2 μM, 5,000 cells/well): 42,059 RLUs
- Dead/Live (K562 cells [1]; probe 2 μM, 5,000 cells/well): 7.6
- Dead, RLUs (K562 cells [1]; probe 2 μM, 10,000 cells/well): 154,018 RLUs
- Live, RLUs (K562 cells [1]; probe 2 μM, 10,000 cells/well): 47,861 RLUs
- Dead/Live (K562 cells [1]; probe 2 μM, 10,000 cells/well): 7.3
- Dead, RLUs (K562 cells [1]; probe 2 μM, 20,000 cells/well): 192,283 RLUs
- Live, RLUs (K562 cells [1]; probe 2 μM, 20,000 cells/well): 51,528 RLUs
- Dead/Live (K562 cells [1]; probe 2 μM, 20,000 cells/well): 7.9
- Dead, RLUs (K562 cells [1]; probe 5 μM, 1,250 cells/well): 236,022 RLUs
- Live, RLUs (K562 cells [1]; probe 5 μM, 1,250 cells/well): 43,298 RLUs
- Dead/Live (K562 cells [1]; probe 5 μM, 1,250 cells/well): 18.1
- Dead, RLUs (K562 cells [1]; probe 5 μM, 2,500 cells/well): 373,598 RLUs
- Live, RLUs (K562 cells [1]; probe 5 μM, 2,500 cells/well): 50,284 RLUs
- Dead/Live (K562 cells [1]; probe 5 μM, 2,500 cells/well): 18.7
- Dead, RLUs (K562 cells [1]; probe 5 μM, 5,000 cells/well): 591,060 RLUs
- Live, RLUs (K562 cells [1]; probe 5 μM, 5,000 cells/well): 60,873 RLUs
- Dead/Live (K562 cells [1]; probe 5 μM, 5,000 cells/well): 19.4
- Dead, RLUs (K562 cells [1]; probe 5 μM, 10,000 cells/well): 620,751 RLUs
- Live, RLUs (K562 cells [1]; probe 5 μM, 10,000 cells/well): 76,596 RLUs
- Dead/Live (K562 cells [1]; probe 5 μM, 10,000 cells/well): 13.1
- Dead, RLUs (K562 cells [1]; probe 5 μM, 20,000 cells/well): 477,185 RLUs
- Live, RLUs (K562 cells [1]; probe 5 μM, 20,000 cells/well): 78,093 RLUs
- Dead/Live (K562 cells [1]; probe 5 μM, 20,000 cells/well): 9.4
- increase in light output in live cells as compared to media control (K562 cells [1]; within the linear range of the assay): less than 2 fold
- Dead/Live at 5,000 cells/well (Raji cells [2]; at 4 h): 35.4
- Dead/Live at 5,000 cells/well (Raji cells [2]; at 24 h): 21.7
- assay window (Raji cells [2]; labeling concentration 1 μM): > 5 fold
- increase in luminescence signal in live cells from media only control (Raji cells [2]; labeling with 5 μM): > 2 fold
- Dead, RLUs (Raji cells [2]; probe 1 μM, 1,250 cells/well): 112,901 RLUs
- Live, RLUs (Raji cells [2]; probe 1 μM, 1,250 cells/well): 71,937 RLUs
- Dead/Live (Raji cells [2]; probe 1 μM, 1,250 cells/well): 6.0
- Dead, RLUs (Raji cells [2]; probe 1 μM, 2,500 cells/well): 164,403 RLUs
- Live, RLUs (Raji cells [2]; probe 1 μM, 2,500 cells/well): 78,455 RLUs
- Dead/Live (Raji cells [2]; probe 1 μM, 2,500 cells/well): 6.8
- Dead, RLUs (Raji cells [2]; probe 1 μM, 5,000 cells/well): 257,879 RLUs
- Live, RLUs (Raji cells [2]; probe 1 μM, 5,000 cells/well): 88,466 RLUs
- Dead/Live (Raji cells [2]; probe 1 μM, 5,000 cells/well): 7.9
- Dead, RLUs (Raji cells [2]; probe 1 μM, 10,000 cells/well): 403,731 RLUs
- Live, RLUs (Raji cells [2]; probe 1 μM, 10,000 cells/well): 107,531 RLUs
- Dead/Live (Raji cells [2]; probe 1 μM, 10,000 cells/well): 7.8
- Dead, RLUs (Raji cells [2]; probe 1 μM, 20,000 cells/well): 731,355 RLUs
- Live, RLUs (Raji cells [2]; probe 1 μM, 20,000 cells/well): 134,572 RLUs
- Dead/Live (Raji cells [2]; probe 1 μM, 20,000 cells/well): 9.4
- Live, RLUs (Raji cells [2]; probe 5 μM, 1,250 cells/well): 210,695 RLUs
- Dead/Live (Raji cells [2]; probe 5 μM, 1,250 cells/well): 7.7
- Dead, RLUs (Raji cells [2]; probe 5 μM, 2,500 cells/well): 2,179,562 RLUs
- Live, RLUs (Raji cells [2]; probe 5 μM, 2,500 cells/well): 317,452 RLUs
- Dead/Live (Raji cells [2]; probe 5 μM, 2,500 cells/well): 8.2
- Dead, RLUs (Raji cells [2]; probe 5 μM, 5,000 cells/well): 3,826,655 RLUs
- Live, RLUs (Raji cells [2]; probe 5 μM, 5,000 cells/well): 508,581 RLUs
- Dead/Live (Raji cells [2]; probe 5 μM, 5,000 cells/well): 8.4
- Dead, RLUs (Raji cells [2]; probe 5 μM, 10,000 cells/well): 4,916,472 RLUs
- Live, RLUs (Raji cells [2]; probe 5 μM, 10,000 cells/well): 672,232 RLUs
- Dead/Live (Raji cells [2]; probe 5 μM, 10,000 cells/well): 7.9
- Dead, RLUs (Raji cells [2]; probe 5 μM, 20,000 cells/well): 3,314,700 RLUs
- Live, RLUs (Raji cells [2]; probe 5 μM, 20,000 cells/well): 645,489 RLUs
- Dead/Live (Raji cells [2]; probe 5 μM, 20,000 cells/well): 5.6
- Dead/Live at 5,000 cells/well (SKBR3; at 4 h): 10.1
- Dead/Live at 5,000 cells/well (SKBR3; at 24 h): 10.9
- cell viability measured with CellTiter-Glo (K562 cells [3]): no decrease in cell viability
- Dead/Live at 5,000 cells/well (HCT116; at 4 h): 8.1
- Dead/Live at 5,000 cells/well (HCT116; at 24 h): 6.7
- effect on cell viability (Raji cells [4]; labeling concentration 1 μM): without significant effect on cell viability
- decrease in cell viability as measured by CellTiter-Glo (Raji cells [4]; labeling with 5 μM): more than 40%
- Dead/Live at 5,000 cells/well (A431; at 4 h): 7.4
- Dead/Live at 5,000 cells/well (A431; at 24 h): 6.2
- uptake of probe by cells (various cell types): successfully taken up by every cell tested
